From patent publication US10258599B2, “Compounds for use in the prevention or treatment of cancer” (SEMMELWEIS UNIVERSITY, priority 2014, dated 2019)
Structures can show the parent of a compound that is named as a salt.

Key:
Daoy HTB-186 cell line = assay: MTT proliferation assay, Daoy medulloblastoma cells; format: cell-based, human; settings: monotherapy, nine concentrations 10^-14 to 10^-6 M, 72 hours
Procedure: (§1) Human medulloblastoma cell line, Daoy was purchased from ATCCC, UW-228 was obtained from the courtesy of Professor Silber (Univerity of Washington, Seattle, Wash., USA).
(§2) Daoy and UW-228-2 cell lines were maintained in culture medium (each 500 ml Minimum Essential Medium Eagle, Alpha Modification (M8042, Sigma, St Louis, USA) with 50 ml FCS (Gibco), 40 mg Gentamicin (Sandoz), 5 ml sodium-pyruvate (S8636, Sigma, St Louis, USA), 5 ml non-essential-amino acid solution (M7145, Sigma, St Louis, USA), 10 ml L-glutamin (Sigma, St Louis, USA) at 37° C. in humified 5% CO2.
(§3) In each well 3×10^3 Daoy or UW-228-2 cells were seeded in 96-well plates (Sarstedt), solved in 100 μl of its own medium with 10% FCS. 24 hours after seeding, cells were treated for 72 hours by drugs solved in further 100 μl medium. First, both cell lines were treated by (−)-BPAP and (−)-deprenil in monotherapy to determine its dose-effect curves in concentration of 10^−6, 10^−7, 10^−8, 10^−9, […], 10^−11, 10^−12, 10^−13 and 10^−14 M. In combined treatment 10^−3, 3.3×10^−4, […] and 3.7×10^−5 M of temozolomide (Schering Plough, USA) or 0.04, 0.2, 1, 5 μM of Cisplatin (Ebewe Pharma, Austria) or 0.04, 0.2, 1, 5 μM of etoposide (Ebewe Pharma, Austria) or 10^−7, 10^−6, 10^−5 and 10^−4 μM (UW228-2) or 0.001, 0.005, 0.025 and 0.125 μM (Daoy) of Vincristin (Richter Gedeon, Hungary) were applied in monotherapy or combined with 10^−13 or 10^−8 M of (−)-BPAP or (−)-deprenil.
(§4) Cell proliferation was evaluated by MTT (3-(4,5-Dimethylthiazol-2-yl)-2,5-diphenyltetrazolium bromide) assay (M5655, Sigma) after 72-hour treatment by the method described in manufacturer's protocol.

UW-228-2 cell line = assay: MTT proliferation assay, UW-228-2 medulloblastoma cells; format: cell-based, human; settings: UW-228-2, monotherapy, nine concentrations 10^-14 to 10^-6 M, 72 hours
Procedure: as §1, §2, §3, §4

[1] = system: Wistar-Logan strain of rats; settings: cited from earlier work
[2] = system: catecholaminergic neurons; assay: Shuttle box: antagonism of tetrabenazine-induced learning deficit (conditioned avoidance reflex); format: in vivo, rat
Procedure: In a modified version of the shuttle box the acquisition of a two-way conditioned avoidance reflex (CAR) was analyzed during 5 consecutive days. The rat was put in a box divided inside into two parts by a barrier with a small gate in the middle, and the animal was trained to cross the barrier under the influence of a conditioned stimulus (CS, light flash). […] One trial consisted of 10 s intertrial interval, followed by 20 s CS. The last 5 s of CS overlaped the 5 s US. At each learning session, the number of CARs, EFs and intersignal reactions (IRs) are automatically counted and evaluated by multi-way ANOVA.
Tetrabenazine-treatment (1 mg/kg s.c.) depletes at least 90% of norepinephrine and dopamine from their stores in the nerve terminals of the catecholaminergic neurons in the brain stem. Due to the weak performance of the catecholaminergic brain engine, the activation of the cortical neurons remains below the level required for the acquisition of a CAR. The learning deficit caused by tetrabenazine-treatment can be antagonized by the administration of a synthetic CAE substance or an A-type MAO inhibitor, whereas selective inhibition of B-type MAO or inhibition of the reuptake of catecholamines and/or serotonin is ineffective (Knoll et al., 1992).

fibromyxosarcoma = assay: Longevity study: manifestation of subcutaneous fibromyxosarcoma (TMS effect); format: in vivo, rat; settings: for tumor manifestation suppressing (TMS) effect versus saline: Kaplan-Meier
Procedure: (§5) The longevity study was performed on 200 male rats received from the breeding colony of the Semmelweis University. The rats were born at the end of February of 2010. After 2-month acclimation period the rats were divided randomly into 5 even groups. The longevity study started at the beginning of May 2010. Animals were observed until their natural deaths. The data in this study represent the changes observed until Oct. 31, 2012, since in the saline-treated group the last animal died on Oct. 31, 2012. As will be shown later a few rats in the enhancer-treated groups were still alive on Nov. 1, 2012.
(§6) During the longevity study 5 rats were housed together in polycarbonate cages (height: 18 cm; wide: 42 cm; length: 44 cm) with a stainless steel on the top. Cage bedding was renewed 3 times a week (Monday, Wednesday and Friday). Bodyweight was measured once every month. The treatment started at the end of the second month of their age.
We carefully observed the appearance of the subcutaneous tumor and followed the development of the tumor until death. Histological analysis was performed post mortem on several rats taken from each group as examples.
The subcutaneous tumors developed in the rats were measured by the two largest diameters. After sacrificing the animals, the tumors were removed, photographs were taken. Tissues were fixed immediately after removal in 10% neutral formalin (in PBS, pH7.0) for 24 hours at room temperature, dehydrated and embedded in paraffin. 3-4 micrometer thick sections were cut and stained by hematoxylin and eosin (HE) as a routine.
(§7) Significance in the performance between the groups in the shuttle box was evaluated by multi-factor analysis of variance (ANOVA). Significance regarding the span of time from tumor manifestation until death in rats and regarding aging related changes in bodyweight treated chronically with the enhancer substances was analyzed by One-way ANOVA. Statistical analysis of survival rate and tumor manifestation was performed by the Kaplan-Meier method.

lung carcinoma = assay: Longevity study on FVB/N mice: spontaneous lung carcinoma at autopsy; format: in vivo, mouse; settings: 18-month
Procedure: Body weight is measured bimonthly.
For monitoring, we planned to sacrifice mice from each group at 6-month, 1-year, 1.5-year and 2-year time-points; the rest of the animals are kept until spontaneous death.
The results are shown in Table 4 and on FIGS. 19 and 20. Significance levels were calculated with two-sided Chi-square test.

[3] = system: male Wistar rats (Charles River); assay: Longevity study: survival of rats treated 3 times a week s.c.; format: in vivo, rat
Procedure: Experiments were carried out on male Wistar rats (Charles River) weighing 250-350 g received from the breeding colony of Semmelweis University. The animals were kept in a 12-hour light-dark cycle and under condition of controlled temperature (22±2° C.) and relative humidity (55±5%). Room temperature and relative humidity was checked daily. The rats were maintained on standard laboratory chow and tap water ad libitum. All procedures conformed to the European Convention for the protection of vertebrate animals used for experimental and other scientific purposes. The study was approved by the Animal Ethics Committee of Semmelweis University, Budapest (permission number: 1810/003/2004)
as §5, §6
To avoid the mixing of the groups and individuals, saline-treated rats were signed blue from 1 to 40; D-treated rats were signed green from 1 to 80 (1-40: rats treated with 0.1 mg/kg and 41-80: rats treated with 0.001 mg/kg); B-treated rats were signed black from 1 to 80 (1-40: rats treated with 0.05 mg/kg and 41-80: rats treated with 0.0001 mg/kg).
as §7

isolated rat brain stem [4] = settings: optimal concentration for the specific enhancer effect, 3-min collection period; review Knoll, 2005; cited from earlier work
[5] = system: catecholaminergic neurons in the brain stem; settings: 1 mg/kg s.c.; cited from earlier work
isolated rat brain stem [6] = assay: Release of labelled transmitter from isolated rat brain stem to electrical stimulation
From the text: After a single washout the neurons work immediately on their normal activity level again. Since neurons respond to stimulation in an “all or none” manner, it is obvious that only a part of the neuronal population (the most excitable ones) respond to the electrical stimulation.
This measurement can be made, mutatis mutandis, analogously to the measurement described in example 2 of EP1052259B1 (corresponding to WO2000026204A1). The method is described in [Knoll J, Knoll B and Miklya I Life Sci, 58, 2101-2114 (1996)].
In short the brain stem (average weight about 800 mg) is isolated from rats and soaked in oxygenated Krebs' solution. Then solution of labelled neurotransmitter the release of which is measured is added to the preparation and allowed for uptake in an appropriate environment. If needed, MAO activity is inhibited.
After uptake of the monoamine the brain stem is fixed in appropriate organ bath and washed in appropriate solution facilitating uptake and preventing metabolization of the monoamine.
Fractionation of the perfusate is carried out periodically and, if the monoamine is radiolabelled, fractions are combined with a scintillation liquid.
The organ is perfused with the buffer containing the compound(s) of the invention for sufficient time before electrostimulation.
The brain stem is stimulated with rectangular pulses (e.g. 3 Hz, 1 ms 60 V) e.g. for 3 min. At the beginning of the experiment, the several, e.g. three resting periods of fraction were proceeded prior to the first stimulation. Thereafter it is allotted several, e.g. seven resting periods of fraction between stimulation.

[7] = shuttle box, 1 mg/kg tetrabenazine s.c.

C#CCN(C)[C@H](C)Cc1ccccc1 [(−)-Deprenyl, (R)—N-methyl-N-(1-phenylpropan-2-yl)prop-2-yn-1-amine, reference compound]
proliferation of cultured medulloblastoma cells (Daoy HTB-186 cell line; listed as (−)-deprenyl): did not inhibit the proliferation | proliferation of cultured medulloblastoma cells (Daoy HTB-186 cell line; listed as Deprenyl): none of the applied concentrations did Deprenyl or BPAP influence the proliferation | proliferation of cultured medulloblastoma cells (UW-228-2 cell line; listed as (−)-deprenyl): did not inhibit the proliferation | proliferation of cultured medulloblastoma cells (UW-228-2 cell line; listed as Deprenyl): none of the applied concentrations did Deprenyl or BPAP influence the proliferation | rats that lived longer than the maximum lifespan ever observed in the strain ([1]; HP rats, out of 50): 17 rats | lifespan versus saline treated peers ([1]; sexually lowest performing (LP) rats, n=49): lived significantly longer than their saline treated peers | dose-effect-relation of the enhancer effect ([2]; shuttle box (FIG. 3)): bi-modal, bell-shaped | optimal dose that exerted the specific enhancer effect [2, 7]: 0.001 mg/kg | very high dose range effective in antagonizing the tetrabenazine-induced learning deficit (MAO-A inhibition) [2, 7]: 5 to 10 mg/kg | tumor manifestation suppressing (TMS) effect versus saline (fibromyxosarcoma; 0.001 mg/kg): not significant | month of age in which the first animal manifested the tumor (fibromyxosarcoma; 0.001 mg/kg, N=40): 12 month | rats in the group manifested the tumor to the end of the 32nd month (fibromyxosarcoma; 0.001 mg/kg, N=40): 15 rats | tumor manifestation suppressing (TMS) effect versus saline (fibromyxosarcoma; 0.1 mg/kg, P<0.01, listed as (−)-deprenyl): significantly decreased | tumor manifestation suppressing (TMS) effect versus saline (fibromyxosarcoma; 0.1 mg/kg, P<0.01, listed as Deprenyl): suppressed the manifestation of the fibromyxosarcoma significantly | month of age in which the first animal manifested the tumor (fibromyxosarcoma; 0.1 mg/kg, N=40): 16 month | rats in the group manifested the tumor to the end of the 32nd month (fibromyxosarcoma; 0.1 mg/kg, N=40): 11 rats | rats manifested the tumor when the group completed the 30th month of life (fibromyxosarcoma; 0.1 mg/kg, N=40): 11 rats | span of time from tumor manifestation until death (fibromyxosarcoma; chronic treatment, versus saline (FIG. 13), One-way ANOVA): no significant difference | Number of detected lung carcinoma (lung carcinoma; 0.001 mg/kg daily, 2 dissected mice): 0 | Number of detected lung carcinoma (lung carcinoma; 0.1 mg/kg daily, 4 dissected mice): 1 | month of age in which the first animal died ([3]; 0.001 mg/kg s.c. 3 times a week, N=40): 13 month | rats remained alive to the end of the 32nd month ([3]; 0.001 mg/kg, N=40): none | month of age in which the first animal died ([3]; 0.1 mg/kg s.c. 3 times a week, N=40): 11 month | lifespan compared with saline-treated peers ([3]; both doses of the longevity study (FIGS. 5-8)): did not prolong the lifespan of rats significantly | released amount of labeled transmitter ([3H]-norepinephrine, [3H]-dopamine or [3H]-serotonin) (isolated rat brain stem [4]): significantly higher

COc1cc2c(cc1OC)C1CC(=O)C(CC(C)C)CN1CC2 (centres unmarked) [Tetrabenazine, Tetrabenazine HCl]
depletion of norepinephrine and dopamine from their stores in the nerve terminals [5]: at least 90%

C#CCN(C)CCCOc1ccc(Cl)cc1Cl [clorgyline]
release of [3H]-SER to electrical stimulation (isolated rat brain stem [6]; 250 ng/ml): None of these compounds enhanced the release

CNCCC(Oc1ccc(C(F)(F)F)cc1)c1ccccc1 (centres unmarked) [fluoxetine]
release of [3H]-SER to electrical stimulation (isolated rat brain stem [6]; 50 ng/ml): None of these compounds enhanced the release

NCCNC(=O)c1ccc(Cl)cn1 [lazabemide]
release of [3H]-SER to electrical stimulation (isolated rat brain stem [6]; 250 ng/ml): None of these compounds enhanced the release
